Data taken from US9597407B2, “Targeted antimicrobial moieties” (C3 Jian, Inc., priority 2009, dated 2017).
Entries after “also recorded” stand apart in the source; their conditions may differ.

Legend:
bacteria = assay: Binding of targeting peptides to microorganisms (Table 3); conditions: preferably 1x PBS; for Target(s): microorganism bound by the targeting peptide, binding in aqueous buffers chosen by peptide solubility
microorganisms = assay: Morphology, biofilm and growth disruption by peptides (Table 5); type: cell-based; design: key: A: Peptide aggregates; B: Less hyphal formation; Clumps; Diffuse clumps and small polyps; F: Diffuse growth; H: Thin; I: Growth inhibition; Microcolony formation; Rippled; Small polyps; Thick; W: Halo formation on top, microlonies on bottom
From the text: In certain embodiments peptides that induce alterations in phenotype or other biological activities can also be used as antimicrobial effector moieties.

[1] = peptide binding in aqueous buffers that varied depending on peptide solubility

PF-403 (LLSTEQLLKYYDGETFDGFQLPSNE; Peptide with targeting and/or antimicrobial activity)
Target(s) (microorganisms bound by the targeting peptide) (bacteria; [1]): E. coli; also recorded: P. aeruginosa; also recorded: S. pneumoniae; also recorded: E. faecalis; also recorded: C. jeikeium; also recorded: C. jejuni | Organism, effect (microorganisms; E. coli): E. coli (R) | Organism, effect (microorganisms; MRSA): MRSA (M) | Organism, effect (microorganisms; S. epidermidis): S. epidermidis (M)

PF-255 (DHKINESQHNPFRSDSNKQNVDFF; Peptide with targeting and/or antimicrobial activity)
Target(s) (bacteria): P. aeruginosa | Organism, effect (microorganisms; M. luteus): M. luteus (M)

PF-175 (RRRPAGQRPEKASQAMIAA; Peptide with targeting and/or antimicrobial activity)
Target(s) (bacteria): S. epidermidis; also recorded: E. faecalis | Organism, effect (microorganisms; B. subtilis): B. subtilis (D) | Organism, effect (microorganisms; C. albicans): C. albicans (B) | Organism, effect (microorganisms; C. jejuni): C. jejuni (M) | Organism, effect (microorganisms; M. luteus): M. luteus (S) | Organism, effect (microorganisms; S. pneumoniae): S. pneumoniae (A)

PF-270 (MYLTPYAWIAVGSIFAFSVTTIKIGDQNDEKQKSHKNDVHKR; Peptide with targeting and/or antimicrobial activity)
Target(s) (bacteria): S. epidermidis; also recorded: M. luteus; also recorded: P. aeruginosa | Organism, effect (microorganisms; M. luteus): M. luteus (H)

PF-667 (chain 1 PAHQRLRIDQRLVADRDMVQDYES; chain 2 PAHQRLRIDQRLVADRDMVQDYES; Peptide with targeting and/or antimicrobial activity)
Target(s) (microorganism bound by the targeting peptide) (bacteria; [1]): Mycobacteria spp | Organism, effect (morphology, biofilm and growth disruption) (microorganisms; E. faecalis): E. faecalis (R) | Organism, effect (morphology, biofilm and growth disruption) (microorganisms; MRSA): MRSA (R) | Organism, effect (morphology, biofilm and growth disruption) (microorganisms; S. epidermidis): S. epidermidis (R) | Organism, effect (morphology, biofilm and growth disruption) (microorganisms; S. pneumoniae): S. pneumoniae (R)

PF-684 (chain 1 RKLSLASGFALWRRSLV; chain 2 RKLSLASGFALWRRSLV; Peptide with targeting and/or antimicrobial activity)
Target(s) (microorganism bound by the targeting peptide) (bacteria; [1]): Mycobacteria spp | Organism, effect (morphology, biofilm and growth disruption) (microorganisms; C. albicans): C. albicans (B) | Organism, effect (morphology, biofilm and growth disruption) (microorganisms; E. faecalis): E. faecalis (A) | Organism, effect (morphology, biofilm and growth disruption) (microorganisms; S. pneumoniae): S. pneumoniae (C)

PF-C139 (LLASHPERLSLGVFFVYRVLHLLLENT; Peptide with targeting and/or antimicrobial activity)
Target(s) (microorganism bound by the targeting peptide) (bacteria; [1]): A. naeslundii; also recorded: F. nucleatum; also recorded: P. gingivalis; also recorded: S. mutans; also recorded: T. denticola | Organism, effect (morphology, biofilm and growth disruption) (microorganisms; S. mutans): S. mutans (F)

PF-208 (DAYHCHLVRSPDAHDLSMRIGFV; Peptide with targeting and/or antimicrobial activity)
Target(s) (bacteria): S. epidermidis and C. albicans and MRSA and S. pneumoniae and E. faecalis and C. jeikeium and C. jejuni | Organism, effect (microorganisms; C. jeikeium): C. jeikeium (A) | Organism, effect (microorganisms; S. epidermidis): S. epidermidis (D)

NYAVVSHT [PF-209]
Target(s) (bacteria): C. albicans; also recorded: C. jeikeium; also recorded: C. jejuni | Organism, effect (microorganisms; MRSA): MRSA (I) | Organism, effect (microorganisms; P. aeruginosa): P. aeruginosa (H) | Organism, effect (microorganisms; S. epidermidis): S. epidermidis (C)

PF-C143 (VVFGGGDRLV; Peptide with targeting and/or antimicrobial activity)
Target(s) (microorganism bound by the targeting peptide) (bacteria; [1]): A. naeslundii; also recorded: F. nucleatum; also recorded: P. gingivalis; also recorded: S. mutans; also recorded: T. denticola | Organism, effect (morphology, biofilm and growth disruption) (microorganisms; F. nucleatum): F. nucleatum (C)

PF-638 (chain 1 TFILPK; chain 2 TFILPK; Peptide with targeting and/or antimicrobial activity)
Target(s) (microorganism bound by the targeting peptide) (bacteria; [1]): S. epidermidis and C. albicans and MRSA and C. jeikeium | Organism, effect (morphology, biofilm and growth disruption) (microorganisms; E. faecalis): E. faecalis (H) | Organism, effect (morphology, biofilm and growth disruption) (microorganisms; MRSA): MRSA (M) | Organism, effect (morphology, biofilm and growth disruption) (microorganisms; S. epidermidis): S. epidermidis (R) | Organism, effect (morphology, biofilm and growth disruption) (microorganisms; S. pneumoniae): S. pneumoniae (I)

PF-249 (INSRYKISF; Peptide with targeting and/or antimicrobial activity)
Target(s) (bacteria): S. epidermidis; also recorded: M. luteus | Organism, effect (microorganisms; M. luteus): M. luteus (R)
